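Step 1: Grow cells in 96-well plates. Step 2: Expose to compound for 48 hours at 5 concentrations. Step 3: Interpolate endpoints linearly; if unreached, use highest concentration. GI50 is the concentration that inhibits growth by half. The concentration for full growth arrest is given as TGI.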
Key:
Experiment in all cases: NCI tumour cell line growth inhibition, 48 h
[1] = tested on: MCF7 breast
[2] = tested on: HS 578T breast
[3] = tested on: RXF-631 renal
[4] = tested on: DLD-1 colon
[5] = tested on: KM20L2 colon
[6] = tested on: MDA-N

| Structure (SMILES) | GI50 [1] | TGI [1] | GI50 [2] | TGI [2] | TGI [3] [µM] | TGI [4] [µM] | TGI [5] [µM] | TGI [6] | GI50 [6] [µg/mL] |
| --- | --- | --- | --- | --- | --- | --- | --- | --- | --- |
| C=CCSc1n[nH]c(-c2cccs2)n1 | > 100 µM | > 100 µM | > 100 µM | > 100 µM | – | – | – | – | – |
| O=C(C#Cc1c[nH]c(=O)[nH]c1=O)c1ccccc1 | – | – | – | – | 27.4 | 23.4 | – | – | – |
| Cc1ccc(C(=O)/C=C/c2ccccc2Cl)cc1 | – | – | – | – | – | 36 | 30.9 | – | – |
| C=C1CC2(OC1=O)c1ccccc1CCc1ccccc12 | – | 16.2 µM | – | 5.03 µM | – | 3.4 | 14.5 | 3.34 µM | – |
| CC1=COC2=C(C)C(=O)C(=O)c3c(C)ccc1c32 | – | 8.92 µM | – | > 95.7 µM | – | – | – | 3.26 µM | – |
| N#Cc1c(NC(=O)CCC(=O)O)ccc2ccccc12 | – | > 100 µM | – | > 100 µM | – | – | – | > 100 µM | – |
| CC1CC(=O)C(C(O)CC2CC(=O)N(c3ccccc3)C(=O)C2)C(C)C1 (stereo unspecified) | – | – | – | – | – | > 100 | > 100 | – | – |
| CCCCCN(CCCCC)C(=O)[C@@H](CCC(=O)OCc1ccccc1)NC(=O)c1cc2ccccc2[nH]1 | – | – | – | – | > 100 | > 100 | > 100 | – | – |
| CSC(=S)NN=C1CCCCC1 | – | > 100 µM | – | > 100 µM | – | – | – | – | – |
| COc1ccc(/C=N/NC(=O)O)cc1 | – | > 100 µM | – | > 100 µM | – | – | – | > 100 µM | – |
| Cc1cccc(NC(=O)CC2C(=O)Nc3ccccc3S2(=O)=O)c1C (stereo unspecified) | – | – | – | – | – | > 100 | > 100 | – | – |
| Nc1cc(C(F)F)c(-c2nc(N3[C@@H]4CC[C@H]3COC4)nc(N3[C@@H]4CC[C@H]3COC4)n2)cn1 | 0.189 µM | > 100 µM | 0.18 µM | 0.908 µM | – | – | – | – | – |
| COc1ccc2[nH]cc(/C=C3\C(=O)Nc4ccccc43)c2c1 | 2.45 µM | 10.5 µM | 3.79 µM | 19.9 µM | – | – | – | – | – |
| CCOC(=O)C(=Cc1ccc(Br)cc1)C(=O)OCC | 1.66 µM | 6.67 µM | 4.03 µM | > 19.6 µM | – | – | – | – | – |
| C=C(C)C1CC[C@]2(C(=O)O)CCC3(C)[C@H](CCC4[C@@]5(C)CC[C@H](OC6OC(CO)C(O)C6OC6OC(C)C(O)C(O)C6O)[C@@](C)(CO)C5CC[C@]43C)C12 (stereo partly specified) | – | – | – | – | > 100 | > 100 | > 100 | – | – |
| NC(C(=O)O)C(N)C(=O)O (stereo unspecified) | – | > 100 µM | – | > 100 µM | – | – | – | > 100 µM | – |
| COc1ccc(-c2c(N)[n+]([O-])c3cc(C)c(C)cc3[n+]2[O-])cc1OC | – | – | – | – | 38.8 | > 100 | > 100 | – | – |
| O=[N+]([O-])c1ccc2nc(N/N=C/c3ccc(O)cc3)sc2c1 | 3.17 µM | 70.5 µM | 3.7 µM | 38.3 µM | – | – | – | – | – |
| CSc1s[s+]c(SC)c1[O-] | – | – | – | – | 41.8 | 33.6 | > 100 | – | – |
| C=C(CO)CC(O)c1ccccc1 (stereo unspecified) | – | – | – | – | > 100 | > 100 | > 100 | – | – |

| Structure (SMILES) | GI50 [1] | TGI [1] | GI50 [2] | TGI [2] | TGI [3] [µM] | TGI [4] [µM] | TGI [5] [µM] | TGI [6] | GI50 [6] [µg/mL] |
| --- | --- | --- | --- | --- | --- | --- | --- | --- | --- |
| CS(=O)(=O)c1ccc(C(F)(F)F)cc1NC(=O)Nc1cnc(Oc2ccc(-c3cc(Cl)cnc3N)cc2)nc1 | 2.18 µM | 7.35 µM | 2.08 µM | 8.44 µM | – | – | – | – | – |
| O=[N+]([O-])c1ccc(N(CCO)CCO)c2c1no[n+]2[O-] | 1.21 µM | 10.2 µM | 0.705 µM | 4.29 µM | – | – | – | – | – |
| C/C=C/C=C/[C@H]1Cc2cc(O)cc(O)c2O1 | – | – | – | – | > 100 | > 100 | > 100 | – | – |
| CN(C)CCCC1(c2ccc(F)cc2)OCc2cc(-c3ccc4cc[nH]c4c3)ccc21 (stereo unspecified) | 1.65 µM | 3.24 µM | 1.8 µM | 4.27 µM | – | – | – | – | – |
| N#Cc1ccc(-n2cnc(NC(=O)[C@H]3CCN(C#N)C3)c2)cc1 | < 0.0378 µM | > 100 µM | 1.9 µM | 13.6 µM | – | – | – | – | – |
| CC1=CCC2(C#N)CCC1C2=O (stereo unspecified) | – | – | – | – | > 100 | > 100 | > 100 | – | – |
| CCOC(=O)c1cc(C(=O)c2cc(OC)cc(OC)c2)n2ncccc12 | 1.31 µM | > 100 µM | 1.99 µM | > 100 µM | – | – | – | – | – |
| COC(=O)C1CCc2c(OC)ccc(OC)c2C1=O (stereo unspecified) | – | – | – | – | – | > 100 | > 100 | – | – |
| NC(=O)c1c(OCc2c(F)cc(Br)cc2F)nsc1NC(=O)NCCCCN1CCCC1 | 1.99 µM | > 10 µM | 0.157 µM | 0.971 µM | – | – | – | – | – |
| COc1ccc(OC)c(-c2nc3sccn3c2/C=C2/C(=O)Nc3ccccc32)c1 | 0.476 µM | > 35.7 µM | 0.415 µM | 2.3 µM | – | – | – | – | – |
| O=c1cccc(C#CCCCCOC2CCCO2)o1 (stereo unspecified) | 8.73 µM | > 100 µM | 7.46 µM | 29.2 µM | – | – | – | – | – |
| Clc1ccc2c(NCCCN3CCN(c4nc(-n5ccnc5)nc5ccccc45)CC3)ccnc2c1 | – | – | 2.28 µM | 19.2 µM | – | – | – | – | – |
| O=S(=O)(Nc1ccc(Cl)c(C(F)(F)F)c1)c1ccc(-c2cnc(C3CC3)o2)cc1 | 0.132 µM | 5.23 µM | 0.334 µM | 3.48 µM | – | – | – | – | – |
| COCCN1C2=CCCCC2=Nc2c(N)nc(N)nc21 | – | – | – | – | > 100 | > 100 | > 100 | – | – |
| CN/N=C(\C)CC(=O)Nc1cccc(Cl)c1C | – | – | – | – | > 100 | > 100 | > 100 | – | – |
| O=C(c1cccs1)c1c(C(F)(F)F)n([O-])c2cc(F)c(F)cc2[n+]1=O | 1.31 µM | 15.4 µM | 1.21 µM | 12.1 µM | – | – | – | – | – |
| O=C1C=C(Br)C(=O)C(Br)=C1 | – | – | – | – | > 100 | > 100 | > 100 | – | – |
| NC(N)=NC(N)=NCCc1ccccc1 | > 100 µM | > 100 µM | > 100 µM | > 100 µM | – | – | – | – | – |
| NC1=C(c2nc(-c3cc4ccccc4oc3=O)cs2)C(c2ccco2)c2c(c3ccccc3oc2=O)O1 (stereo unspecified) | > 150 µg/mL | > 150 µg/mL | 39.6 µg/mL | 139 µg/mL | – | – | – | > 150 µg/mL | > 150 |

Source: PubChem BioAssay (NCI)
